Source: ChEMBL document CHEMBL4680132, “Tuning isoform selectivity and bortezomib sensitivity with a new class of alkenyl indene PDI inhibitor” (Eur J Med Chem, 2020)
Active and inactive are the calls of the source. The rule behind the calls is not given here.

Columns and labels:
[1] = system: MM1.S; test: Inhibition of PDI in human bortezomib-resistant MM1.S cells assessed as induction of ATF4 levels at 0.5 uM incubated for 8 hrs by Western blot analysis
[2] = system: MM1.S; test: Inhibition of PDI in human bortezomib-resistant MM1.S cells assessed as induction of Nrf2 levels at 0.5 uM incubated for 8 hrs by Western blot analysis
[3] = system: MM1.S; test: Inhibition of PDI in human bortezomib-resistant MM1.S cells assessed as induction of CHOP levels at 0.5 uM incubated for 8 hrs by Western blot analysis
[4] = system: MM1.S; test: Inhibition of PDI in human bortezomib-resistant MM1.S cells assessed as accumulation of poly-ubiquinated protein at 0.5 uM incubated for 8 hrs by Western blot analysis
[5] = target: T1, Protein disulfide-isomerase A3 (Homo sapiens, UniProt P30101); test: Inhibition of PDIA3 (unknown origin) expressed in Escherichia coli BL21 (DE3) incubated for 1 hr and measured by insulin reduction assay
T1 sequence (P30101 whole entry): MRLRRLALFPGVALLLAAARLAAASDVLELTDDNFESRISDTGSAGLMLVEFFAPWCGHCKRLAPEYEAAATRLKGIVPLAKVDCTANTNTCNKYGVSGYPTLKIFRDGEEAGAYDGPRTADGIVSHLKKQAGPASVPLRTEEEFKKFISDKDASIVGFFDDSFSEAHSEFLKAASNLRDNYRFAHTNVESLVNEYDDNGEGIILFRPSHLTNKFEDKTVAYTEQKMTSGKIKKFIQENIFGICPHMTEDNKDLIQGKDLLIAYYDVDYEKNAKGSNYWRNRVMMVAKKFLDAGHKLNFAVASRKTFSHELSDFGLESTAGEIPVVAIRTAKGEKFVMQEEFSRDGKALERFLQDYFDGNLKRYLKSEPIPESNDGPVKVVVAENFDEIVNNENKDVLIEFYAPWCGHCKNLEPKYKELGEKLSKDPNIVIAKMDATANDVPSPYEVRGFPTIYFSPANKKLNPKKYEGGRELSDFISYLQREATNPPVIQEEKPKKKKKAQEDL

[6] = Inhibition of thioredoxin (unknown origin); design: species or system Homo sapiens
[7] = Inhibition of PDI (unknown origin) expressed in Escherichia coli BL21 (DE3) incubated for 1 hr and measured by insulin reduction assay; design: species or system Homo sapiens
[8] = target: T2, Protein disulfide-isomerase A6 (Homo sapiens, UniProt Q15084); test: Inhibition of PDIA6 (unknown origin) expressed in Escherichia coli BL21 (DE3) incubated for 1 hr and measured by insulin reduction assay
T2 sequence (Q15084 whole entry): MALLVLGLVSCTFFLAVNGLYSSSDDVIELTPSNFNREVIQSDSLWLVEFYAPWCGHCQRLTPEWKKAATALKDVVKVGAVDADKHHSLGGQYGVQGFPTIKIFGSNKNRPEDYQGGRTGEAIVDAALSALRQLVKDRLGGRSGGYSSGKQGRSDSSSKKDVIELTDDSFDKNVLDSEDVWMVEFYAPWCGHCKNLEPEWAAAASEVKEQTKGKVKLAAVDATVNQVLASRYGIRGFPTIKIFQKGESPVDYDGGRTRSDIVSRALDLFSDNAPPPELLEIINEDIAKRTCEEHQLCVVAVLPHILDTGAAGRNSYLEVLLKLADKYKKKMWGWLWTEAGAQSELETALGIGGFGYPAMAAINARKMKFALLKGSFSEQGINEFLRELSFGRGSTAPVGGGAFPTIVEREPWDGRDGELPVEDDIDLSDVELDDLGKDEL

[9] = target: Thioredoxin domain-containing protein 5 (Homo sapiens, UniProt Q8NBS9); test: Inhibition of TXNDC5 (unknown origin)
Chain of Thioredoxin domain-containing protein 5 (Q8NBS9 whole entry, the tested form may be a part): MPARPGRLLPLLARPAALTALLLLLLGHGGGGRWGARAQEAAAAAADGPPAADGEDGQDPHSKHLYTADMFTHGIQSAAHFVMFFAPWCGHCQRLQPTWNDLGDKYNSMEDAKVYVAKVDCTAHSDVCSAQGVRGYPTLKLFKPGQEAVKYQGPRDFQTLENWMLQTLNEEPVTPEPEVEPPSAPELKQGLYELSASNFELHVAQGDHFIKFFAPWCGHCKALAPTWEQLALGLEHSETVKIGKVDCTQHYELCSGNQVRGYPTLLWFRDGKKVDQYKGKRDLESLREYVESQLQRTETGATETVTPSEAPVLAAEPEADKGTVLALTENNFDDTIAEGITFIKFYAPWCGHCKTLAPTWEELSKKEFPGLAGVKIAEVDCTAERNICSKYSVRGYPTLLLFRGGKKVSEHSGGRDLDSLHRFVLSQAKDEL

[10] = target: T3, Protein disulfide-isomerase A4 (Homo sapiens, UniProt P13667); test: Inhibition of PDIA4 (unknown origin) expressed in Escherichia coli BL21 (DE3) incubated for 1 hr and measured by insulin reduction assay
T3 sequence (P13667 whole entry): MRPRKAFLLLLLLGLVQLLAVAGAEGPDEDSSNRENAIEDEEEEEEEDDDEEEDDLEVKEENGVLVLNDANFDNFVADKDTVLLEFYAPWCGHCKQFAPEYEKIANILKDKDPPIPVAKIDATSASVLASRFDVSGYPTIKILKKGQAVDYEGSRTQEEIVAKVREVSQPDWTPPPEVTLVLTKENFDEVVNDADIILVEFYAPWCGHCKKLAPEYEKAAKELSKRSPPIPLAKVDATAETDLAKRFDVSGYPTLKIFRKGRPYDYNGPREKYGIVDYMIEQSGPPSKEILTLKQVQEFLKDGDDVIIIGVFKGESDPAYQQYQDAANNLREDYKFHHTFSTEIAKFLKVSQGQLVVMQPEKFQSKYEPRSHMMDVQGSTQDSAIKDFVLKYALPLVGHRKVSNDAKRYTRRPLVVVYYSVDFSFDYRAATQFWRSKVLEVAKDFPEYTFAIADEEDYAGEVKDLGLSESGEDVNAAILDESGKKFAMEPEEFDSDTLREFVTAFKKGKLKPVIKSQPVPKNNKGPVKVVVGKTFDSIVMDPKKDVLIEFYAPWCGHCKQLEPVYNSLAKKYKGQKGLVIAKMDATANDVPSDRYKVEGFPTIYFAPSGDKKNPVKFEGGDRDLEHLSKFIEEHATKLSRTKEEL

[11] = target: Cytochrome P450 3A4 (Homo sapiens, UniProt P08684); test: Inhibition of CYP3A4 in human liver microsomes using midazolam as substrate incubated for 30 mins by LC-MS/MS analysis; assay type: ADME; details: 0.5 h
Chain of Cytochrome P450 3A4 (P08684 whole entry): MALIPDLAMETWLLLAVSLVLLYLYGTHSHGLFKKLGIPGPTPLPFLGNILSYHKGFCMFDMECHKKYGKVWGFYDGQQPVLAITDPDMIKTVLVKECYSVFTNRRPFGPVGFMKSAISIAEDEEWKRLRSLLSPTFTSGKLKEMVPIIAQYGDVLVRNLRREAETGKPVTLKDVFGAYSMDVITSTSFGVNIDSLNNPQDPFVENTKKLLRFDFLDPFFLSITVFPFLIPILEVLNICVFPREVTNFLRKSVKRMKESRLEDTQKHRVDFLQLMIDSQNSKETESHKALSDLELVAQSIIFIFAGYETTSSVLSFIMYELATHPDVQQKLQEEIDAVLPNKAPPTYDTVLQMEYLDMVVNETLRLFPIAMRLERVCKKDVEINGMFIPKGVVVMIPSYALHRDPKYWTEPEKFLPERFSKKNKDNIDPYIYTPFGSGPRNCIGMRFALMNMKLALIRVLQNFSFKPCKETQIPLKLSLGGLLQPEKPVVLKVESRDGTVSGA

## CCCCCCCC/C=C1/C=C(C(F)(F)F)c2cc(O)c(O)cc21
[1]
  ATF4 induction (activity call): Active
[2]
  Nrf2 induction (activity call): Active
[3]
  CHOP induction (activity call): Active
[4]
  poly-ubiquitinated protein accumulation (qualitative): Active

## FC(F)(F)C1=C/C(=C/CCCCCCOCc2ccccc2)c2cc3c(cc21)OCO3
[1]
  ATF4 induction (activity call): Active
[2]
  Nrf2 induction (activity call): Active
[3]
  CHOP induction (activity call): Active
[4]
  poly-ubiquitinated protein accumulation (qualitative): Active

## CCCCCC/C=C1\C=C(C(F)(F)F)c2cc3c(cc21)OCCO3
[1]
  ATF4 induction (activity call): Active
[2]
  Nrf2 induction (activity call): Active
[3]
  CHOP induction (activity call): Active
[4]
  poly-ubiquitinated protein accumulation (qualitative): Active

## CCCCCC/C=C1\C=C(C(=O)OCC)c2cc(O)c(O)cc21
[1]
  ATF4 induction (activity call): Active
[2]
  Nrf2 induction (activity call): Active
[3]
  CHOP induction (activity call): Active
[4]
  poly-ubiquitinated protein accumulation (qualitative): Active

## CCCCCCCC/C=C1/C=C(C(F)(F)F)c2cc(OC)c(OC)cc21
[1]
  ATF4 induction (activity call): Active
[5]
  IC50: 20.8 µM
[2]
  Nrf2 induction (activity call): Active
[3]
  CHOP induction (activity call): Active
[6]
  IC50: Not Active
[7]
  IC50: 1.12 µM
[8]
  IC50: 16.3 µM
[9]
  IC50: > 100 µM
[4]
  poly-ubiquitinated protein accumulation (qualitative): Active
[10]
  IC50: 61.6 µM

## CCCCCC/C=C1\C=C(C(F)(F)F)c2cc(O)c(O)cc21
[1]
  ATF4 induction (activity call): Active
[2]
  Nrf2 induction (activity call): Active
[3]
  CHOP induction (activity call): Active
[4]
  poly-ubiquitinated protein accumulation (qualitative): Active

## CCCCCC/C=C1\C=C(C(=O)NC)c2cc(O)c(O)cc21
[1]
  ATF4 induction (activity call): Active
[2]
  Nrf2 induction (activity call): Active
[3]
  CHOP induction (activity call): Active
[4]
  poly-ubiquitinated protein accumulation (qualitative): Active

## CCCCCC/C=C1\C=C(C(=O)O)c2cc(O)c(O)cc21
[1]
  ATF4 induction (activity call): Active
[2]
  Nrf2 induction (activity call): Active
[3]
  CHOP induction (activity call): Active
[4]
  poly-ubiquitinated protein accumulation (qualitative): Active

## FC(F)(F)C1=C/C(=C\CCCCCCOCc2ccccc2)c2cc3c(cc21)OCO3
[1]
  ATF4 induction (activity call): Active
[2]
  Nrf2 induction (activity call): Active
[3]
  CHOP induction (activity call): Active
[4]
  poly-ubiquitinated protein accumulation (qualitative): Active

## CCCCCC/C=C1\C=C(C(F)(F)F)c2cc(OC)ccc21
[1]
  ATF4 induction (activity call): Active
[2]
  Nrf2 induction (activity call): Active
[3]
  CHOP induction (activity call): Active
[4]
  poly-ubiquitinated protein accumulation (qualitative): Active

## CCCCCC/C=C1\C=C(C(F)(F)F)c2cc3c(cc21)OCO3
[1]
  ATF4 induction (activity call): Active
[5]
  IC50: 16.5 µM
[2]
  Nrf2 induction (activity call): Active
[3]
  CHOP induction (activity call): Active
[6]
  IC50: Not Active
[7]
  IC50: 0.79 µM
[8]
  IC50: 12 µM
[11]
  inhibition (INH): Not Active
[9]
  IC50: > 100 µM
[4]
  poly-ubiquitinated protein accumulation (qualitative): Active
[10]
  IC50: > 100 µM

## COc1cc2c(cc1OC)/C(=C\CCCCCCOCc1ccccc1)C=C2C(F)(F)F
[1]
  ATF4 induction (activity call): Active
[2]
  Nrf2 induction (activity call): Active
[3]
  CHOP induction (activity call): Active
[4]
  poly-ubiquitinated protein accumulation (qualitative): Active

## FC(F)(F)C1=C/C(=C\CC2CCCC2)c2cc3c(cc21)OCO3
[1]
  ATF4 induction (activity call): Active
[2]
  Nrf2 induction (activity call): Active
[3]
  CHOP induction (activity call): Active
[4]
  poly-ubiquitinated protein accumulation (qualitative): Active

## COc1cc2c(cc1OC)/C(=C/CCCCCCOCc1ccccc1)C=C2C(F)(F)F
[1]
  ATF4 induction (activity call): Active
[2]
  Nrf2 induction (activity call): Active
[3]
  CHOP induction (activity call): Active
[4]
  poly-ubiquitinated protein accumulation (qualitative): Active

## CCCCCC/C=C1/C=C(C(F)(F)F)c2cc(O)c(O)cc21
[1]
  ATF4 induction (activity call): Active
[2]
  Nrf2 induction (activity call): Active
[3]
  CHOP induction (activity call): Active
[4]
  poly-ubiquitinated protein accumulation (qualitative): Active

## CCCCCCCC/C=C1\C=C(C(F)(F)F)c2cc(O)c(O)cc21
[1]
  ATF4 induction (activity call): Active
[5]
  IC50: 4.8 µM
[2]
  Nrf2 induction (activity call): Active
[3]
  CHOP induction (activity call): Active
[6]; read-out: IC50
  IC50: 30.3 µM
[7]
  IC50: 0.6 µM
[8]
  IC50: 5.7 µM
[11]
  inhibition (INH): Not Active
[9]
  IC50: 12.1 µM
[4]
  poly-ubiquitinated protein accumulation (qualitative): Active
[10]
  IC50: 33.1 µM

## FC(F)(F)C1=C/C(=C\CC2CCCCC2)c2cc3c(cc21)OCO3
[1]
  ATF4 induction (activity call): Active
[2]
  Nrf2 induction (activity call): Active
[3]
  CHOP induction (activity call): Active
[4]
  poly-ubiquitinated protein accumulation (qualitative): Active

## CCCCCCCC/C=C1\C=C(C(F)(F)F)c2cc(OC)c(OC)cc21
[1]
  ATF4 induction (activity call): Active
[2]
  Nrf2 induction (activity call): Active
[3]
  CHOP induction (activity call): Active
[4]
  poly-ubiquitinated protein accumulation (qualitative): Active
